In PubChem BioAssay (NCI):
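Grown in 96-well plates, cells were treated for 48 hours with each compound at five concentrations. Insufficient inhibition: endpoint recorded as highest concentration tested. At the GI50, growth is halved. The concentration for full growth arrest is given as TGI.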

Legend:
Test in all cases: NCI tumour cell line growth inhibition, 48 h
T-47D breast = test system: T-47D breast
OVCAR-5 ovarian = test system: OVCAR-5 ovarian
COLO 205 colon = test system: COLO 205 colon
NCI-H226 lung = test system: NCI-H226 lung
DU-145 prostate = test system: DU-145 prostate
UO-31 renal = test system: UO-31 renal
ACHN renal = test system: ACHN renal
NCI-H522 lung = test system: NCI-H522 lung
MDA-MB-231 breast = test system: MDA-MB-231 breast
HOP-62 NSCLC = test system: HOP-62 NSCLC
HCT-116 colon = test system: HCT-116 colon
K-562 leukemia = test system: K-562 leukemia
KM12 colon = test system: KM12 colon
CAKI-1 renal = test system: CAKI-1 renal
CCRF-CEM leukemia = test system: CCRF-CEM leukemia
SF-539 CNS = test system: SF-539 CNS
786-0 renal = test system: 786-0 renal
SF-268 CNS = test system: SF-268 CNS
HS 578T breast = test system: HS 578T breast
SK-MEL-28 melanoma = test system: SK-MEL-28 melanoma
NCI/ADR-RES ovarian = test system: NCI/ADR-RES ovarian
MALME-3M melanoma = test system: MALME-3M melanoma
SW-620 colon = test system: SW-620 colon
NCI-H23 lung = test system: NCI-H23 lung
IGROV1 ovarian = test system: IGROV1 ovarian
OVCAR-8 ovarian = test system: OVCAR-8 ovarian
RXF 393 renal = test system: RXF 393 renal
MOLT-4 leukemia = test system: MOLT-4 leukemia
HCT-15 colon = test system: HCT-15 colon
NCI-H460 lung = test system: NCI-H460 lung
SK-MEL-5 melanoma = test system: SK-MEL-5 melanoma
EKVX NSCLC = test system: EKVX NSCLC
A549 NSCLC = test system: A549 NSCLC
HT29 colon = test system: HT29 colon
SNB-75 CNS = test system: SNB-75 CNS
BT-549 breast = test system: BT-549 breast
OVCAR-3 ovarian = test system: OVCAR-3 ovarian
HCC-2998 colon = test system: HCC-2998 colon
SNB-19 CNS = test system: SNB-19 CNS
RPMI-8226 leukemia = test system: RPMI-8226 leukemia
M14 melanoma = test system: M14 melanoma
SF-295 CNS = test system: SF-295 CNS
OVCAR-4 ovarian = test system: OVCAR-4 ovarian
A498 renal = test system: A498 renal
SK-OV-3 ovarian = test system: SK-OV-3 ovarian
TK-10 renal = test system: TK-10 renal
UACC-62 melanoma = test system: UACC-62 melanoma
HOP-92 NSCLC = test system: HOP-92 NSCLC
LOX IMVI melanoma = test system: LOX IMVI melanoma
UACC-257 melanoma = test system: UACC-257 melanoma
PC-3 prostate = test system: PC-3 prostate

CC(C)(C)c1ccc(O)c(C(O)c2ccncc2)c1 (centres undefined)
TGI (T-47D breast): > 100 µM
TGI (OVCAR-5 ovarian): > 100 µM
TGI (COLO 205 colon): > 100 µM
TGI (NCI-H226 lung): > 100 µM
TGI (DU-145 prostate): > 100 µM
TGI (UO-31 renal): > 100 µM
TGI (ACHN renal): > 100 µM
TGI (NCI-H522 lung): > 100 µM
TGI (MDA-MB-231 breast): > 100 µM
TGI (HOP-62 NSCLC): > 100 µM
TGI (HCT-116 colon): > 100 µM
TGI (K-562 leukemia): > 100 µM
TGI (KM12 colon): > 100 µM
TGI (CAKI-1 renal): > 100 µM
TGI (CCRF-CEM leukemia): > 100 µM
TGI (SF-539 CNS): > 100 µM
TGI (786-0 renal): > 100 µM
TGI (SF-268 CNS): > 100 µM
TGI (HS 578T breast): > 100 µM
TGI (SK-MEL-28 melanoma): > 100000 nM
TGI (NCI/ADR-RES ovarian): > 100 µM
TGI (MALME-3M melanoma): > 100 µM
TGI (SW-620 colon): > 100 µM
TGI (NCI-H23 lung): > 100 µM
TGI (IGROV1 ovarian): > 100 µM
TGI (OVCAR-8 ovarian): > 100 µM
TGI (RXF 393 renal): > 100000 nM
TGI (MOLT-4 leukemia): > 100 µM
TGI (HCT-15 colon): > 100 µM
TGI (NCI-H460 lung): > 100 µM
TGI (SK-MEL-5 melanoma): 66.7 µM
TGI (EKVX NSCLC): > 100 µM
TGI (A549 NSCLC): > 100 µM
TGI (HT29 colon): > 100 µM
TGI (SNB-75 CNS): > 100 µM
TGI (BT-549 breast): > 100000 nM
TGI (OVCAR-3 ovarian): > 100 µM
TGI (HCC-2998 colon): > 100 µM

Cn1nc(C(=O)N2CC(CCl)c3c2cc(N)c2ccccc32)cc1NC(=O)Nc1cc(C(=O)N2CC(CCl)c3c2cc(N)c2ccccc32)nn1C (centres undefined)
TGI (OVCAR-5 ovarian): > 100 µM
TGI (SNB-19 CNS): 2320 nM
TGI (UO-31 renal): 65.5 µM
TGI (ACHN renal): > 100 µM
TGI (RPMI-8226 leukemia): > 100 µM
TGI (M14 melanoma): 5.58 µM
TGI (HOP-62 NSCLC): 69.3 µM
TGI (K-562 leukemia): > 100 µM
TGI (SF-295 CNS): > 100 µM
TGI (KM12 colon): > 100 µM
TGI (CAKI-1 renal): 6.13 µM
TGI (OVCAR-4 ovarian): > 100 µM
TGI (A498 renal): 54.5 µM
TGI (NCI/ADR-RES ovarian): > 100 µM
TGI (SK-OV-3 ovarian): > 100 µM
TGI (SW-620 colon): > 100 µM
TGI (NCI-H23 lung): 0.661 µM
TGI (RXF 393 renal): 511 nM
TGI (HCT-15 colon): > 100 µM
TGI (NCI-H460 lung): > 100 µM
TGI (EKVX NSCLC): > 100 µM
TGI (A549 NSCLC): > 100 µM
TGI (TK-10 renal): > 100 µM
TGI (BT-549 breast): 523 nM
TGI (HCC-2998 colon): > 100 µM

O=C(Cn1c[n+](CC(=O)c2ccc(-c3ccccc3)cc2)c2ccccc21)Nc1cccc2cccnc12
GI50 (OVCAR-5 ovarian): 1500 nM
TGI (OVCAR-5 ovarian): 2.84 µM
GI50 (NCI-H226 lung): 2020 nM
TGI (NCI-H226 lung): 7.33 µM
GI50 (DU-145 prostate): 2220 nM
TGI (DU-145 prostate): 5.71 µM
GI50 (UO-31 renal): 14.2 µM
TGI (UO-31 renal): 33.3 µM
GI50 (ACHN renal): 3.06 µM
TGI (ACHN renal): 10.7 µM
GI50 (NCI-H522 lung): 1530 nM
TGI (NCI-H522 lung): 3.25 µM
GI50 (K-562 leukemia): 639 nM
TGI (K-562 leukemia): > 100 µM
GI50 (SF-295 CNS): 1730 nM
TGI (SF-295 CNS): 3.26 µM
GI50 (CAKI-1 renal): 2180 nM
TGI (CAKI-1 renal): 6.16 µM
GI50 (UACC-62 melanoma): 1400 nM
TGI (UACC-62 melanoma): 2840 nM
GI50 (SF-539 CNS): 1620 nM
TGI (SF-539 CNS): 3.06 µM
GI50 (HS 578T breast): 1700 nM
TGI (HS 578T breast): 4.3 µM
GI50 (A498 renal): 1040 nM
TGI (A498 renal): 4.84 µM
GI50 (SK-MEL-28 melanoma): 1510 nM
TGI (SK-MEL-28 melanoma): 2830 nM
GI50 (NCI/ADR-RES ovarian): 18.7 µM
TGI (NCI/ADR-RES ovarian): 64.8 µM
GI50 (SW-620 colon): 1620 nM
TGI (SW-620 colon): 3.05 µM
GI50 (NCI-H23 lung): 1520 nM
TGI (NCI-H23 lung): 3.02 µM
GI50 (HOP-92 NSCLC): 677 nM
TGI (HOP-92 NSCLC): 2180 nM
GI50 (LOX IMVI melanoma): 1540 nM
TGI (LOX IMVI melanoma): 3.03 µM
GI50 (UACC-257 melanoma): 1280 nM
TGI (UACC-257 melanoma): 2780 nM
GI50 (HCT-15 colon): 9.63 µM
TGI (HCT-15 colon): 30.9 µM
GI50 (SK-MEL-5 melanoma): 1730 nM
TGI (SK-MEL-5 melanoma): 3.11 µM
GI50 (EKVX NSCLC): 1630 nM
TGI (EKVX NSCLC): 4.13 µM
GI50 (A549 NSCLC): 3.02 µM
TGI (A549 NSCLC): 13 µM
GI50 (TK-10 renal): 2010 nM
TGI (TK-10 renal): 3.74 µM
GI50 (SNB-75 CNS): 1650 nM
TGI (SNB-75 CNS): 4.03 µM
GI50 (PC-3 prostate): 1030 nM
TGI (PC-3 prostate): 2290 nM
GI50 (HCC-2998 colon): 1400 nM
TGI (HCC-2998 colon): 2.74 µM
